# Patent US7932283B2, “Fungicide N-cyclopropyl-sulfonylamide derivatives” (Bayer Cropscience AG, priority 2006, dated 2011)
# Assay: logP by HPLC on reversed-phase column (C 18), EEC Directive 79/B31 Annex V.A8, methods A and B
# Assay type: physicochemical
# Conditions: reversed-phase HPLC column (C 18), HPLC reversed-phase C 18, method A: 43° C., 0.1% aqueous phosphoric acid, acetonitrile, linear gradient 10% to 90% acetonitrile
# Procedure: Calibration was carried out using unbranched alkan-2-ones (having 3 to 16 carbon atoms) with known logP values (determination of the logP values by the retention times using linear interpolation between two successive alkanones).
row,chromatographic logP,Structure (SMILES)
1,3.72,CCOC(=O)c1[nH]c(C)c(C(=O)N(C2CC2)S(=O)(=O)c2ccc(C(F)(F)F)cc2)c1C [Compound 30]
2,3.27,Cn1nc(C(F)(F)F)c(C(=O)N(C2CC2)S(=O)(=O)c2ccccc2O)c1O [Compound 208]
3,4.08,CCOC(=O)c1[nH]c(C)c(C(=O)N(C2CC2)S(=O)(=O)c2ccc(O)c(C(F)(F)F)c2)c1C [Compound 31]
4,2.83,Cc1nn(C)c(F)c1C(=O)N(C1CC1)S(=O)(=O)c1ccc(O)cc1 [Compound 190]
5,2.35,COc1ccc(S(=O)(=O)N(C(=O)c2c(C)nn(C)c2F)C2CC2)cc1 [Compound 184]
6,2.48,Cc1nn(C)c(F)c1C(=O)N(C1CC1)S(=O)(=O)c1cccc([N+](=O)[O-])c1 [Compound 195]

# Continued, molecule first:
row,Structure (SMILES),chromatographic logP
1,Cc1nn(C)cc1C(=O)N(C1CC1)S(=O)(=O)c1ccccc1O [Compound 197],1.95
2,Cc1ncc(C(=O)N(C2CC2)S(=O)(=O)c2ccc(O)cc2O)s1 [Compound 64],2.91
3,COc1ccccc1S(=O)(=O)N(C(=O)c1c(C)nn(C)c1F)C1CC1 [Compound 182],2.06

# Same assay, conditions: reversed-phase HPLC column (C 18), HPLC reversed-phase C 18, method B: 40° C., 0.1% aqueous formic acid and acetonitrile, linear gradient 10% to 90% acetonitrile
row,chromatographic logP,Structure (SMILES)
1,3.9,Cn1nc(C(F)(F)F)c(C(=O)N(C2CC2)S(=O)(=O)c2ccc(Oc3ccccc3)cc2)c1F [Compound 370]
2,3.2,Cn1nc(C(F)(F)F)c(C(=O)N(C2CC2)S(=O)(=O)c2ccc(F)cc2Br)c1F [Compound 368]
3,3.5,CC(F)c1nn(C)cc1C(=O)N(C1CC1)S(=O)(=O)c1ccc(Oc2ccccc2)cc1 (stereo not drawn) [Compound 121]
4,4,Cc1cc(C(=O)N(C2CC2)S(=O)(=O)c2ccc(Oc3ccc(Br)cc3)cc2)nn1C [Compound 77]
5,4.2,Cn1nc(C(F)(F)F)c(C(=O)N(C2CC2)S(=O)(=O)c2ccc(Oc3ncc(C(F)(F)F)cc3O)cc2)c1F [Compound 372]
6,3.1,Cn1nc(C(F)(F)F)c(C(=O)N(C2CC2)S(=O)(=O)c2ccccc2C(F)(F)F)c1F [Compound 364]
7,3.4,CC(C)c1nn(C)c(F)c1C(=O)N(C1CC1)S(=O)(=O)c1ccccc1C(F)(F)F [Compound 98]

# Continued, molecule first:
row,Structure (SMILES),chromatographic logP
1,CCCOc1nn(C)cc1C(=O)N(C1CC1)S(=O)(=O)c1ccc(Oc2ccc(Br)cc2)cc1Br [Compound 300],4.6
2,CCCOc1nn(C)cc1C(=O)N(C1CC1)S(=O)(=O)c1ccc(Oc2cccc(O)c2)cc1Br [Compound 296],4.5
3,Cc1cc(C(=O)N(C2CC2)S(=O)(=O)c2ccc(O)c(O)c2O)c(C)o1 [Compound 6],4.4
4,Cn1nc(C2CC2)c(C(=O)N(C2CC2)S(=O)(=O)c2ccc(O)c(O)c2O)c1O [Compound 223],4.2
5,Cc1nn(C)c(Oc2ccc(O)cc2)c1C(=O)N(C1CC1)S(=O)(=O)c1ccccc1O [Compound 261],3.6
6,Cn1nc(-c2ccccc2)c(C(=O)N(C2CC2)S(=O)(=O)c2ccc(O)c(O)c2O)c1F [Compound 100],4.3
7,CCc1nn(C)c(F)c1C(=O)N(C1CC1)S(=O)(=O)c1c(O)cc(O)cc1O [Compound 379],3.6
8,O=C(c1ccsc1I)N(C1CC1)S(=O)(=O)c1ccc(Oc2ccc(Br)cc2)cc1 [Compound 22],4.9
9,CCCOc1nn(C)cc1C(=O)N(C1CC1)S(=O)(=O)c1ccc(Oc2cccc(N(C)C)c2)cc1Br [Compound 292],4.4
10,Cn1nc(C(F)(F)F)c(C(=O)N(C2CC2)S(=O)(=O)c2c(O)cc(O)cc2O)c1F [Compound 363],3.7
11,CCOC(=O)c1[nH]c(C)c(C(=O)N(C2CC2)S(=O)(=O)c2cccc(O)c2O)c1C [Compound 34],3.5

# Same assay, conditions: reversed-phase HPLC column (C 18), LogP method A: HPLC reversed-phase C 18, 43° C., 0.1% aqueous phosphoric acid / acetonitrile, linear gradient 10% to 90% acetonitrile
row,chromatographic logP,Structure (SMILES)
1,4.18,CCc1onc(C(C)C)c1C(=O)N(C1CC1)S(=O)(=O)c1cccc(O)c1 [Compound 589]
2,3.37,Cc1nn(C)c(C)c1C(=O)N(C1CC1)S(=O)(=O)c1ccc(O)c(C(F)(F)F)c1 [Compound 411]
3,2.01,Cc1c(C(=O)N(C2CC2)S(=O)(=O)c2ccc(C(C)(C)C)cc2)sc(=O)n1C [Compound 624]
4,4.08,CCc1c(C(=O)N(C2CC2)S(=O)(=O)c2ccc(O)c(O)c2)sc(=O)n1C1CC1 [Compound 630]
5,4.77,CCc1onc(C(C)C)c1C(=O)N(C1CC1)S(=O)(=O)c1ccc(O)c(O)c1 [Compound 595]
6,4.98,CCc1onc(C(C)C)c1C(=O)N(C1CC1)S(=O)(=O)c1ccc(C(C)(C)C)cc1 [Compound 597]
7,2.01,CCc1c(C(=O)N(C2CC2)S(=O)(=O)c2ccc(O)cc2O)sc(=O)n1C1CC1 [Compound 631]
8,3.01,CC(C)c1c(C(=O)N(C2CC2)S(=O)(=O)c2ccc(O)c(O)c2)sc(=O)n1C1CC1 [Compound 634]
9,2.45,Cc1n[nH]c(C)c1C(=O)N(C1CC1)S(=O)(=O)c1cccc(Cl)c1 [Compound 401]
10,3.01,CCc1c(C(=O)N(C2CC2)S(=O)(=O)c2ccc(Cl)c(C(F)(F)F)c2)sc(=O)n1C1CC1 [Compound 629]
11,2.74,O=C(c1cccnc1)N(C1CC1)S(=O)(=O)c1ccc(C(F)(F)F)cc1 [Compound 637]
12,4.03,Cc1noc(C)c1C(=O)N(C1CC1)S(=O)(=O)c1ccc(C(C)(C)C)cc1 [Compound 593]
13,2.01,COCCn1c(C)c(C(=O)N(C2CC2)S(=O)(=O)c2ccc(O)c(C(F)(F)F)c2)sc1=O [Compound 619]
14,2.01,COCCn1c(C)c(C(=O)N(C2CC2)S(=O)(=O)c2ccc(C(F)(F)F)cc2)sc1=O [Compound 610]
15,3.01,CCc1c(C(=O)N(C2CC2)S(=O)(=O)c2ccc(C(C)(C)C)cc2)sc(=O)n1C1CC1 [Compound 632]
16,2.01,COCCn1c(C)c(C(=O)N(C2CC2)S(=O)(=O)c2ccc(C(C)(C)C)cc2)sc1=O [Compound 621]
17,4.37,CCc1onc(C(C)C)c1C(=O)N(C1CC1)S(=O)(=O)c1ccc(C(F)(F)F)cc1 [Compound 590]
18,4.03,CC(C)c1c(C(=O)N(C2CC2)S(=O)(=O)c2ccc(C(F)(F)F)cc2)sc(=O)n1C1CC1 [Compound 618]

# The remaining lines, values behind:
row,Structure (SMILES),chromatographic logP
1,Cc1nn(C)c(F)c1C(=O)N(C1CC1)S(=O)(=O)c1cnc(O)c(Br)c1 [Compound 447],3.08
2,Cc1cc(C(=O)N(C2CC2)S(=O)(=O)c2ccccc2O)nc(Cl)n1 [Compound 654],2.93
3,Cc1nn(C)c(C)c1C(=O)N(C1CC1)S(=O)(=O)c1ccc(O)cc1O [Compound 413],2.8
4,O=C(c1cccnc1)N(C1CC1)S(=O)(=O)c1cccc(O)c1 [Compound 642],2.3
5,COC(=O)c1csc(C)c1S(=O)(=O)N(C(=O)c1c(C)nn(C)c1F)C1CC1 [Compound 434],2.24
6,Cc1nn(C)c(Oc2cccc(O)c2)c1C(=O)N(C1CC1)S(=O)(=O)c1cccc(O)c1 [Compound 399],3.94

# Same assay, conditions: reversed-phase HPLC column (C 18), LogP method B: HPLC reversed-phase C 18, 40° C., 0.1% aqueous formic acid / acetonitrile, linear gradient 10% to 90% acetonitrile
row,chromatographic logP,Structure (SMILES)
1,3.7,Cc1oncc1C(=O)N(C1CC1)S(=O)(=O)c1ccc(Oc2ccccc2)cc1 [Compound 606]
2,4.2,Cc1cnn(C)c1C(=O)N(C1CC1)S(=O)(=O)c1ccc(Oc2ccc(Br)cc2)cc1 [Compound 661]
3,3.9,COc1nn(C)cc1C(=O)N(C1CC1)S(=O)(=O)c1ccc(Oc2ccc(C(F)(F)F)cc2)cc1Br [Compound 475]
4,2.3,COc1nn(C)cc1C(=O)N(C1CC1)S(=O)(=O)c1ccccc1C(F)(F)F [Compound 460]

# Continued, molecule first:
row,Structure (SMILES),chromatographic logP
1,Cc1oncc1C(=O)N(C1CC1)S(=O)(=O)c1ccc(Oc2ccc(Br)cc2)cc1 [Compound 605],3.4
2,Cc1oncc1C(=O)N(C1CC1)S(=O)(=O)c1cccc(O)c1O [Compound 603],2.2
3,COc1nn(C)cc1C(=O)N(C1CC1)S(=O)(=O)c1ccc(Oc2ccc(O)c(O)c2)cc1Br [Compound 478],4.2
4,Cc1nn(C)c(C(=O)N(C2CC2)S(=O)(=O)c2cccc(O)c2O)c1Cl [Compound 586],3.7
5,COc1nn(C)cc1C(=O)N(C1CC1)S(=O)(=O)c1ccc(Oc2ccc(O)cc2Cl)cc1Br [Compound 477],4.1
6,CCOc1nn(C)cc1C(=O)N(C1CC1)S(=O)(=O)c1ccc(Oc2ccc(C)nc2)cc1Br [Compound 526],2.3
7,CCOc1nn(C)cc1C(=O)N(C1CC1)S(=O)(=O)c1ccc(Oc2ccc(O)cc2Cl)cc1O [Compound 543],4.3
8,COc1nn(C)cc1C(=O)N(C1CC1)S(=O)(=O)c1ccc(Oc2cccc(OC(F)(F)F)c2)cc1Br [Compound 476],4
9,Cn1ncc(I)c1C(=O)N(C1CC1)S(=O)(=O)c1cccc(O)c1O [Compound 662],2.8
10,CCOc1nn(C)cc1C(=O)N(C1CC1)S(=O)(=O)c1ccc(Oc2ccc(OC)c(OC)c2)cc1O [Compound 527],3.2
11,COc1nn(C)cc1C(=O)N(C1CC1)S(=O)(=O)c1ccc(Oc2cccc(Br)c2)cc1Br [Compound 473],3.8
12,COc1nn(C)cc1C(=O)N(C1CC1)S(=O)(=O)c1ccc(Oc2ccc(C)nc2)cc1Br [Compound 458],2

# Same assay, conditions: reversed-phase HPLC column (C 18), Method A: 43° C., 0.1% aqueous phosphoric acid, acetonitrile
row,chromatographic logP,Structure (SMILES)
1,4.44,Cc1nn(C)c(F)c1C(=O)N(C1(c2ccc(O)cc2)CC1)S(=O)(=O)c1cccc(O)c1O [Compound 669]

# Same assay, conditions: reversed-phase HPLC column (C 18), Method B: 40° C., 0.1% aqueous formic acid and acetonitrile
row,chromatographic logP,Structure (SMILES)
1,4.1,Cc1nn(C)c(F)c1C(=O)N(C1(c2ccccc2)CC1)S(=O)(=O)c1cccc(O)c1O [Compound 670]
